Laboratory results taken from patent publication US20050009776A1, “Method of treating atrial fibrillation or atrial flutter” (Aderis Pharmaceuticals, Inc., priority 2003, published 2005).

Assay: Example 2: safety (adverse events, blood pressure, clinical laboratory values)
Format: in vivo, human
Conditions: for Diastolic BP Change from Baseline Post-treatment / Diastolic BP Change from Baseline Treatment / Systolic BP Change from Baseline Post-treatment / Systolic BP Change from Baseline Treatment: mean ± SD
Protocol: Each patient received 1 of 6 doses of DTI-0009 (0.25, 1.0, 2.5, 4.0, 10.0, or 25.0 μg/kg) diluted in normal saline or normal saline only (control). Study drug was administered as a 30-minute i.v. infusion at a rate of 1 mL/minute. Patients were enrolled in sequential dose groups, beginning with the lowest active dose group and continuing in increasing dose order; the final group received normal saline. The decision to proceed to the next highest dose group was based on the safety response in the previous dose group.
Electrophysiologic (EP), electrocardiogram (ECG), blood pressure measurements, and blood collection for clinical laboratory measurements were performed at baseline (−10 to 0 minutes), during treatment (between 20 and 30 minutes), and at 10 minutes post-treatment.
ECG measurements included PR interval, QRS complex duration, and QT interval. Efficacy was based on changes in EP and ECG parameters from baseline to the treatment period and to post treatment. Safety was based on the incidence of adverse events, blood pressure measurements, and clinical laboratory values.
The incidence of adverse events, blood pressure measurements, and clinical laboratory results were summarized by dose group. Adverse events were coded using the medical dictionary for regulatory activities (MedDRA version 3.0). Safety analyses included all patients who received any duration of study drug infusion.

CCNC(=O)[C@H]1O[C@@H](n2cnc3c(NC4CCCC4)ncnc32)[C@H](O)[C@@H]1O [DTI-0009, N^6-cyclopentyl-5′-(N-ethyl)carboxamidoadenosine]
6 (60%): Incidence of Adverse Events: Any Adverse Event (1.0 μg/kg (n = 10))
1.4 ± 21.5 mmHg: Systolic BP Change from Baseline Post-treatment (1.0 μg/kg)
−1.6 ± 9.5 mmHg: Diastolic BP Change from Baseline Post-treatment (2.5 μg/kg)
0: Adverse Events Related to Study Drug: Cardiac Disorders (all) (0.25 μg/kg (n = 10)) | Adverse Events Related to Study Drug: General Disorders (all) (0.25 μg/kg (n = 10)) | Incidence of Adverse Events Related to Study Drug (0.25 μg/kg (n = 10)) | Incidence of Adverse Events: Atrial tachycardia (0.25 μg/kg (n = 10)) | Incidence of Adverse Events: Bradycardia (0.25 μg/kg (n = 10)) | Incidence of Adverse Events: Chest pain/tightness (0.25 μg/kg (n = 10)) | Incidence of Adverse Events: Conduction disorders (0.25 μg/kg (n = 10)) | Incidence of Adverse Events: General Disorders (0.25 μg/kg (n = 10)) | Incidence of Adverse Events: Groin pain/swelling (0.25 μg/kg (n = 10)) | Adverse Events Related to Study Drug: General Disorders (all) (1.0 μg/kg (n = 10)) | Incidence of Adverse Events: Atrial fibrillation (1.0 μg/kg (n = 10)) | Incidence of Adverse Events: Atrial tachycardia (1.0 μg/kg (n = 10)) | Incidence of Adverse Events: Bradycardia (1.0 μg/kg (n = 10)) | Incidence of Adverse Events: Chest pain/tightness (1.0 μg/kg (n = 10)) | Incidence of Adverse Events: Conduction disorders (1.0 μg/kg (n = 10)) | Adverse Events Related to Study Drug: Cardiac Disorders (all) (2.5 μg/kg (n = 8)) | Adverse Events Related to Study Drug: General Disorders (all) (2.5 μg/kg (n = 8)) | Incidence of Adverse Events Related to Study Drug (2.5 μg/kg (n = 8)) | Incidence of Adverse Events: Atrial flutter (2.5 μg/kg (n = 8)) | Incidence of Adverse Events: Atrial tachycardia (2.5 μg/kg (n = 8)) | Incidence of Adverse Events: Bradycardia (2.5 μg/kg (n = 8)) | Incidence of Adverse Events: Conduction disorders (2.5 μg/kg (n = 8)) | Incidence of Adverse Events: Groin pain/swelling (2.5 μg/kg (n = 8)) | Adverse Events Related to Study Drug: General Disorders (all) (4.0 μg/kg (n = 10)) | Incidence of Adverse Events: Atrial flutter (4.0 μg/kg (n = 10)) | Incidence of Adverse Events: Atrial tachycardia (4.0 μg/kg (n = 10)) | Incidence of Adverse Events: Bradycardia (4.0 μg/kg (n = 10)) | Incidence of Adverse Events: Chest pain/tightness (4.0 μg/kg (n = 10)) | Incidence of Adverse Events: Conduction disorders (4.0 μg/kg (n = 10)) | Incidence of Adverse Events: General Disorders (4.0 μg/kg (n = 10))
−0.1 ± 18.0 mmHg: Systolic BP Change from Baseline Treatment (1.0 μg/kg)
0.0 ± 8.4 mmHg: Diastolic BP Change from Baseline Treatment (2.5 μg/kg)
5.8 ± 9.5 mmHg: Systolic BP Change from Baseline Post-treatment (0.25 μg/kg)
3 (30%): Incidence of Adverse Events: Any Adverse Event (0.25 μg/kg (n = 10))
5.2 ± 9.7 mmHg: Diastolic BP Change from Baseline Post-treatment (0.25 μg/kg)
1.0 ± 6.2 mmHg: Systolic BP Change from Baseline Treatment (2.5 μg/kg)
1.0 ± 5.6 mmHg: Diastolic BP Change from Baseline Post-treatment (1.0 μg/kg)
2 (25%): Incidence of Adverse Events: General Disorders (2.5 μg/kg (n = 8))
0.6 ± 9.0 mmHg: Systolic BP Change from Baseline Post-treatment (2.5 μg/kg)
3 (38%): Incidence of Adverse Events: Any Adverse Event (2.5 μg/kg (n = 8))
1 (13%): Incidence of Adverse Events: Atrial fibrillation (2.5 μg/kg (n = 8)) | Incidence of Adverse Events: Cardiac Disorders (2.5 μg/kg (n = 8)) | Incidence of Adverse Events: Chest pain/tightness (2.5 μg/kg (n = 8))
2.5 ± 8.1 mmHg: Diastolic BP Change from Baseline Treatment (0.25 μg/kg)
2 (20%): Incidence of Adverse Events: Cardiac Disorders (0.25 μg/kg (n = 10)) | Adverse Events Related to Study Drug: Cardiac Disorders (all) (4.0 μg/kg (n = 10)) | Incidence of Adverse Events Related to Study Drug (4.0 μg/kg (n = 10)) | Incidence of Adverse Events: Any Adverse Event (4.0 μg/kg (n = 10)) | Incidence of Adverse Events: Atrial fibrillation (4.0 μg/kg (n = 10)) | Incidence of Adverse Events: Cardiac Disorders (4.0 μg/kg (n = 10))
1 (10%): Incidence of Adverse Events: Atrial fibrillation (0.25 μg/kg (n = 10)) | Incidence of Adverse Events: Atrial flutter (0.25 μg/kg (n = 10)) | Adverse Events Related to Study Drug: Cardiac Disorders (all) (1.0 μg/kg (n = 10)) | Incidence of Adverse Events Related to Study Drug (1.0 μg/kg (n = 10)) | Incidence of Adverse Events: Atrial flutter (1.0 μg/kg (n = 10)) | Incidence of Adverse Events: Cardiac Disorders (1.0 μg/kg (n = 10)) | Incidence of Adverse Events: General Disorders (1.0 μg/kg (n = 10)) | Incidence of Adverse Events: Groin pain/swelling (1.0 μg/kg (n = 10))
3.3 ± 9.3 mmHg: Diastolic BP Change from Baseline Treatment (1.0 μg/kg)
8.8 ± 8.2 mmHg: Systolic BP Change from Baseline Treatment (0.25 μg/kg)
